Entries after “also recorded” stand apart in the source; their conditions may differ.
What was measured:
[1] = system: Ube3a-/+ (AS) mice; test: novel object recognition (nOR) paradigm in mouse model of Angelman syndrome; format: in vivo
Method: (§1) FIG. 2. M6P reverses object recognition memory deficits in a mouse model of Angelman syndrome and enhances memory in WT mice. Experimental timelines are shown above graphs. In all experiments mice received a s.c. injection of vehicle or M6P (↑) 20 min before nOR training or testing. Percent exploration preference for a novel object compared to a familiar object during novel object recognition of WT (Control) and Ube3a−/+(AS) mice injected with vehicle or M6P (labeled as IGF-2R.L1), 20 min before training, tested at 4 h and 24 h after training. N=4/group. All data are expressed as the mean (±s.e.m.). Two-way analysis of variance (ANOVA) followed by Tukey post-hoc tests. *P<0.05, **P<0.01, ***P<0.001.
(§2) FIG. 6. PnM6P (L2) reverses object recognition memory deficits in a mouse model of Angelman syndrome. Experimental timeline is shown above graphs. Mice received a s.c. injection of either vehicle or 850 μg/Kg of phosphonate-M6P (PnM6P) called IGF-2R.L2 (or L2) (↑) 20 min before either training or testing. (A) Percent exploration preference for a novel object compared to a familiar object during the nOR paradigm of wild type (WT served as Control mice) and Ube3a−/+(AS) mice injected with vehicle or L2 before training, and tested at 4 h, 24 h and 5 days (5d) after training. N=4/group. Data are expressed as the % mean±s.e.m. (B). Total time spent exploring the 2 objects during the nOR training session of WT and AS mice injected with vehicle or L2 20 min before training. N=4/per group. […] Data are expressed in seconds (s). Two-way analysis of variance (ANOVA) followed by Bonferroni post-hoc tests. *P<0.05, **P<0.01, ***P<0.001.
Specifically, we used the novel object recognition (nOR) paradigm in mice to assess non-aversive episodic memory. In this task, the innate preference for novelty of the rodent is used. During training, the mouse is allowed to explore 2 identical objects. On test day, one of the training objects is replaced with a novel object. Because mice have an innate preference for novelty, if the mouse recognizes the familiar object, it will spend more time at the novel object.

[2] = system: adult rats; test: inhibitory avoidance (IA) contextual fear memory task, intra-hippocampal injection; format: in vivo, rat; details: for avoidance memory (latency) vs vehicle: bilateral intra-hippocampal injection immediately after training
Method: FIG. 3. M6P injected into the hippocampus of rats enhances memory: dose-response curve. Experimental timeline is shown above graph. Rats received a bilateral intra-hippocampal injection of vehicle or different doses of IGF-2R.L1 (M6P) (↑) immediately after training in the contextual fear memory task inhibitory avoidance (IA). Memory retention was then tested at 24 hours (T1) and 7 days (T2) after training. Testing measured the latency to enter the compartment in which the animals received a foot shock during training. N=12/group. All data are expressed as the mean (±s.e.m.). Two-way repeated measures analysis of variance (ANOVA) followed by Bonferroni post-hoc tests. *P<0.05, **P<0.01, ***P<0.001. […] In these experiments, adult rats were trained in the inhibitory avoidance (IA) paradigm. In this paradigm the animals learn to avoid a chamber paired with a foot-shock.

[3] = system: normal (wild type, WT) mice; test: novel object recognition (nOR) paradigm in normal (wild type) mice; format: in vivo, mouse
Method: FIG. 1. Dose-response curve of the effect of M6P, also called IGF2R.L1 (L1) on nOR in normal (wild type, WT) mice. Experimental timeline is shown above graphs. Data are expressed as the mean±s.e.m. N=4 per group. One-way analysis of variance (ANOVA) followed by Bonferroni post-hoc tests. *P<0.05, **P<0.01. WT mice were injected s.c. with vehicle solution or different doses of IGF2R.L1 (L1) 20 min prior to training on nOR. Graphs show percent exploration preference for the novel object compared to the familiar object at testing performed at 4 h and 24 h after training.
as §1
FIG. 4. An M6P derivative, phosphonate M6P (PnM6P), enhances memory in mice. Experimental timeline is shown above graphs. Mice received a s.c. injection of either vehicle or 850 μg/Kg of phosphonate-M6P (PnM6P) called IGF-2R.L2 (or L2) (↑) 20 min before training. (A) Percent exploration preference for a novel object compared to a familiar object during the nOR paradigm of mice injected with vehicle or L2 20 min before training, and tested at 24 h (Test 1), 5 days (Test 2) and 14 days (Test 3) after training. N=8-10/group. Data are expressed as the % mean±s.e.m. (B). Total time spent exploring both objects during the nOR training session of mice injected with vehicle or L2 20 min before training. N=4 per group. […] Data are expressed in seconds (s). Two-way analysis of variance (ANOVA) followed by Bonferroni post-hoc tests. *P<0.05, **P<0.01, ***P<0.001.
FIG. 5. Comparing M6P (L1) and PnM6P (L2) effects on memory retention: both L1 and L2 similarly enhance nOR in mice. Experimental timeline is shown above graphs. Mice received a s.c. injection of either vehicle or 850 μg/Kg of phosphonate-M6P (PnM6P) called IGF-2R.L2 (or L2) or 850 μg/Kg of M6P (IGF-2R.L1 or L1) (↑) 20 min before training. (A) Percent exploration preference for a novel object compared to a familiar object during the nOR paradigm of mice injected with vehicle, L2 or L1 20 min before training, and tested at 24 h (Test 1), 5 days (Test 2) and 14 days (Test 3) after training. N=4-10/group. Data are expressed as the % mean±s.e.m. (B). Total time spent exploring both objects during the nOR training session of mice injected with vehicle, L2 or L1 20 min before training. N=2-4 per group. […] Data are expressed in seconds (s). Two-way analysis of variance (ANOVA) followed by Bonferroni post-hoc tests. *P<0.05, **P<0.01, ***P<0.001.
as §2, with “Two-way analysis of variance (ANOVA) followed by Bonferroni post-hoc tests. *P<0.05, **P<0.01, ***P<0.001.” left out

[4] = WT mice, 850 μg/Kg s.c. 20 min before training, tested 14 days after training

Structure (SMILES) | nOR memory deficit reversal ([1]; s.c. injection 20 min before training, tested 4 h after training (FIG. 2)) | nOR memory retention vs vehicle ([1]; s.c. injection 20 min before training, tested 24 h after training (FIG. 2)) | avoidance memory (latency) vs vehicle ([2]; retested 6 days later (7 days after training, T2)) | avoidance memory (latency) vs vehicle ([2]; tested 1 day (24 h, T1) after training) | dose dependence of memory-enhancing effect ([2]; bilateral intra-hippocampal injection, different doses) | nOR memory (exploration preference for novel object) vs vehicle ([3]; WT control mice, s.c. injection 20 min before training, tested 4 h after training (FIG. 2)) | nOR memory retention vs vehicle ([3]; WT control mice, s.c. injection 20 min before training, tested 24 h after training (FIG. 2)) | nOR memory retention vs vehicle [3, 4] | nOR memory deficit reversal ([1]; 850 μg/Kg s.c. 20 min before training, tested 4 h after training (FIG. 6)) | nOR memory vs vehicle ([1]; 850 μg/Kg s.c. 20 min before training, tested 24 h after training (FIG. 6)) | nOR memory vs vehicle ([3]; WT mice, 850 μg/Kg s.c. 20 min before training, tested 4 h after training (FIG. 6)) | nOR memory retention vs vehicle ([3]; WT mice, 850 μg/Kg s.c. 20 min before training, tested 24 h after training) | nOR memory retention vs vehicle ([3]; WT mice, 850 μg/Kg s.c. 20 min before training, tested 5 days after training)
O=C[C@@H](O)[C@@H](O)[C@H](O)[C@H](O)COP(=O)(O)O [L1, mannose-6-phosphate] | reversed memory deficits in AS mice | significantly increased memory retention in both groups | effect persisted | significant increase in avoidance memory | dose dependent | significant memory enhancement | significantly increased memory retention in both groups | returned to baseline | – | – | – | – | –
COC1OC(CCP(=O)(OCOC(=O)OC(C)C)OCOC(=O)OC(C)C)C(O)C(O)C1O [L2, Methyl 6-Deoxy-6-diisopropyloxycarbonyloxy-methyl-phosphinylmethyl-α-D-mannopyranoside] | – | – | – | – | – | – | – | memory enhancement was no longer seen; also recorded: returned to baseline | reversed memory deficits in AS mice | significant memory in both groups | enhanced memory | significantly increased memory retention at both timepoints; also recorded: significant memory in both groups | significantly increased memory retention at both timepoints

— US12491203B2, “Use of mannose 6 phosphate and modifications thereof for memory enhancement and reducing memory impairment” (New York University, priority 2018, dated 2025)
